Assay [1] has as its system antiserum containing antibody. The assay can be described thus: radioimmunoassay: % of I-125 hapten bound by antibody in presence of digitoxin standards (standard curve). As to conditions: for Mean % bound: mean of triplicate; for % bound: single vial. The assay is classed as binding. The procedure: (§1) The relative amounts of antibody bound radioactive hapten and unbound radioactive hapten are then determined. Preferably, this is accomplished by a determination of the radioactive hapten in each vial by means of a gamma counter. The count rate of vial components following removal of the resin strip reflects the serum concentration of cardiotonic glycoside. A precount determination of radioactivity in the vial is made at the outset of the test on a gamma counter. The percent of radioactive hapten which is antibody bound is then calculated as follows: [formula] With increasing quantities of nonradioactive cardiotonic glycoside (patient or standard), the percent radioactive hapten bound by the antibody decreases. Based upon this principle, a standard curve is prepared by plotting the percent radioactive hapten bound by each of a series of standard sera versus their respective cardiotonic glycosides concentration. The patient's total circulating serum cardiotonic glycoside concentration is then readily determined by comparing the percent radioactive hapten bound in the patient's serum sample to the standard curve.
These are produced by drying U.S.P. Reference Digitoxin at 100° C. for 2 hours in a vacuum desiccator. 50 mg is quantitatively transferred to a 100 ml volumetric flask and brought to that volume with methyl alcohol at 25° C. After mixing, 1 ml is transferred to another 100 ml volumetric flask and diluted to 10 ml with methyl alcohol. This 10 ml is diluted to 100 ml with distilled water. 1 ml is transferred to a 50 ml volumetric flask and diluted to 50 ml with digitoxin free normal human serum containing 0.1% NaN3. The product contains 100 ng/ml of digitoxin. This is diluted with normal human serum containing to 0.1% NaN3 to form a […] standard.
(§2) The following procedure is employed in carrying out the radioimmumoassay method of the invention to prepare a standard curve.
(§3) 1. The required number of reaction vials is removed from the freezer and the net precount per minute is determined for each vial during or after thawing. The thawed reaction vials are gently agitated. Preferably, the test is carried out in triplicate.
(§4) 2. 50 microliters each of the 0, 0.4, 1.0, 2.0, 3.0 and 5.0 ng/ml standard is added to 18 reaction vials.
(§5) 3. 50 microliters of antiserum is added to each of the reaction vials and the caps replaced.
(§6) 4. The vial contents are mixed by rotating for one minute on a rotator at 12-14 rpm or by gently agitating the vial rack.
(§7) 5. The reaction vials are incubated at room temperature for 30 minutes ± 5 minutes.
(§8) 6. One ion-exchange resin strip is inserted in each reaction vial and the caps replaced.
(§9) 7. The reaction vials are rotated for 30 minutes at ambient temperature (20° C. to 30° C.) on a rotator which produces end-over-end mixing at 12-14 rpm.
(§10) 8. The resin strips are carefully removed and discarded. The resin strips should be allowed to drain over the vials by touching the strip lightly on top of the vial prior to replacing the vial caps.
(§11) 9. The net postcount per minute is determined for each reaction vial.
(§12) 10. The % I-125 bound is calculated by dividing the net CPM postcount by the net CPM precount and multiplying by 100. [formula]
Essentially the same procedure was followed for 3-succinyl-digitoxigenin-L-tyrosine except 25 microliters of each digitoxin standard was used.

The subject of assay [2] is digoxin antiserum (antibody). The assay can be described thus: radioimmunoassay: % of I-125 hapten bound by antibody in presence of digoxin standards (standard curve). Particulars: for Mean % bound: mean of triplicate; for % bound: single vial. Format: binding, goats. The procedure: as §1
This serum is produced in goats by the monthly injection of 7.5 mg of BSA-Digoxin conjugate emulsified in complete Freunds adjuvant. The conjugate is prepared by periodate oxidation according to Butler and Chen, Biochem J. 1970. Twenty mg are dissolved in one ml of phosphate buffer solution which is added dropwise with rapid mixing through a 1.0 ml tuberculin syringe to an equal volume of complete adjuvant. The material is injected into multiple subcutaneous sites.
The final dilutions are such that they insure binding eq 60 ± 5% of 3-0-succinyl digoxigenin-L-tyrosine* and displacement by non-radioactive digoxin.
A. Reaction vials: To 99 parts phosphate buffer solution add 1 part of reagent alcohol containing 7-100 nCi/10 ul of 3-0-succinyl digoxigenin tyrosine. Mix mechanically for 1 minute and transfer to an automatic pipette or dispensing device. 1 ml of the above prepared combination reagent is transferred to each reaction vial and the vials are stored at -20° C. (or lower).
C. Digoxin, antiserum diluted as described above to contain the dilution of antibody binding 60% of a 7-100 nc quantity of 3-0-succinyl digoxigenin tyrosine 125-I.
as §2, §3, §4, §5, §6, §7, §8, §9, §10, §11, §12
11. The values obtained should range from 60 + 5% at the 0 ng/ml concentration of digoxin/ml of serum to 20 ± 5% at 10 ng/ml.
The above procedure was followed for 3-succinyl-digoxigenin-L-tyrosin, 3-adipyl-digoxigenin-L-tryosine and 3-carbodigoxigenin-glycyl-L-tyrosine. […]

The mark [3] stands for this setting: digitoxin standard 0.0 ng/ml, 25 microliters.
Where [4] appears, read: digitoxin standard 4.0 ng/ml, 25 microliters.
[5] abbreviates: digitoxin standard 10.0 ng/ml, 25 microliters.
Setting [6] is: digitoxin standard 20.0 ng/ml, 25 microliters.
Setting [7] is: digitoxin standard 30.0 ng/ml, 25 microliters.
Setting [8] is: digitoxin standard 50.0 ng/ml, 25 microliters.
[9] abbreviates: digitoxin standard 100.0 ng/ml, 25 microliters.

“And” between values parts separate entries of the source, which are not always exact repeats. Equal entries are not always repeated.

As for `C[C@]12CC[C@H](OC(=O)CCC(=O)N[C@@H](Cc3ccc(O)cc3)C(=O)O)C[C@H]1CC[C@@H]1[C@@H]2CC[C@]2(C)[C@@H](C3=CC(=O)OC3)CC[C@]12O` [3-succinyl digitoxigenin-L-tyrosine], the Mean % bound in assay [1] (control, no antibody) was determined as 18.8%; in assay [1] (setting [3]), 70.2%; in assay [1] (setting [4]), 67.3%; in assay [1] (setting [5]), 59.9%; in assay [1] (setting [6]) it was 46.8%; in assay [1] (setting [7]), 35.6%. Also, the Mean % bound in assay [1] (setting [8]) is given as 27.7%; in assay [1] (setting [9]) it was 22.9%. The “% bound” value is 18.0% and 18.9% and 19.4% in assay [1] (control, no antibody); 70.8% and 70.7% and 69.0% in assay [1] (setting [3]); 67.3% and 67.6% and 66.9% in assay [1] (setting [4]); 59.9% and 60.2% and 59.5% in assay [1] (setting [5]); 45.8% and 47.3% and 47.2% in assay [1] (setting [6]); 33.9% and 36.7% and 36.2% in assay [1] (setting [7]). Also, the “% bound” value was 26.5% and 29.4% and 27.1% in assay [1] (setting [8]); 22.2% and 22.5% and 24.0% in assay [1] (setting [9]).
`C[C@]12CC[C@H](OC(=O)CCCCC(=O)N[C@@H](Cc3ccc(O)cc3)C(=O)O)C[C@H]1CC[C@@H]1[C@@H]2C[C@@H](O)[C@]2(C)[C@@H](C3=CC(=O)OC3)CC[C@]12O` [3-adipyl-digoxigenin-L-tyrosine]: the Mean % bound in assay [2] (control, no antibody) stood at 3.9%; in assay [2] (digoxin standard 0 ng/ml) it was 65.2%; in assay [2] (digoxin standard 1.0 ng/ml), 46.8%; in assay [2] (digoxin standard 2.0 ng/ml), 33.4%; in assay [2] (digoxin standard 3.0 ng/ml), 25.4%; in assay [2] (digoxin standard 5.0 ng/ml), 17.2%. The Mean % bound in assay [2] (digoxin standard .4 ng/ml) is given as 57.5%. Further, the “% bound” value in assay [2] (control, no antibody) is 4.0% and 3.6%; in assay [2] (digoxin standard 0 ng/ml) it was 66.4% and 64.8% and 64.3%; in assay [2] (digoxin standard 1.0 ng/ml), 46.1% and 47.0% and 47.3%; in assay [2] (digoxin standard 2.0 ng/ml), 34.8% and 32.2% and 33.3%; in assay [2] (digoxin standard 3.0 ng/ml), 26.1% and 25.1% and 25.0%; in assay [2] (digoxin standard 5.0 ng/ml) it was 16.9% and 16.5% and 18.0%. Besides, in assay [2] (digoxin standard .4 ng/ml), the “% bound” value was 57.8% and 57.4% and 57.2%.
Turning to `C[C@]12CC[C@H](OC(=O)NCC(=O)N[C@@H](Cc3ccc(O)cc3)C(=O)O)C[C@H]1CC[C@@H]1[C@@H]2C[C@@H](O)[C@]2(C)[C@@H](C3=CC(=O)OC3)CC[C@]12O` [3-carbodigoxigenin-glycyl-L-tyrosine], the Mean % bound in assay [2] (control, no antibody) turned out to be 5.2%; in assay [2] (digoxin standard 0 ng/ml), 56.6%; in assay [2] (digoxin standard 1.0 ng/ml), 41.3%; in assay [2] (digoxin standard 2.0 ng/ml), 31.6%; in assay [2] (digoxin standard 3.0 ng/ml), 25.3%; in assay [2] (digoxin standard 5.0 ng/ml) it was 17.9%. Besides, the Mean % bound in assay [2] (digoxin standard .4 ng/ml) was determined as 51.3%. Also, the “% bound” value in assay [2] (control, no antibody) is 5.5% and 5.4% and 4.8%; in assay [2] (digoxin standard 0 ng/ml), 57.0% and 55.8% and 56.9%; in assay [2] (digoxin standard 1.0 ng/ml) it was 39.4% and 41.7% and 42.9%; in assay [2] (digoxin standard 2.0 ng/ml) it was 31.5% and 31.7% and 31.4%; in assay [2] (digoxin standard 3.0 ng/ml), 25.5% and 23.3% and 26.9%; in assay [2] (digoxin standard 5.0 ng/ml) it was 18.3% and 18.2% and 17.1%. In assay [2] (digoxin standard .4 ng/ml), the “% bound” value was 50.8% and 51.4% and 51.8%.
For `C[C@]12CC[C@H](OC(=O)CCC(=O)N[C@@H](Cc3ccc(O)cc3)C(=O)O)C[C@H]1CC[C@@H]1[C@@H]2C[C@@H](O)[C@]2(C)[C@@H](C3=CC(=O)OC3)CC[C@]12O` [3-succinyl-digoxigenin-L-tyrosine], the Mean % bound in assay [2] (control, no antibody) was 5.5%; in assay [2] (digoxin standard 0 ng/ml), 66.8%; in assay [2] (digoxin standard 1.0 ng/ml), 49.0%; in assay [2] (digoxin standard 2.0 ng/ml), 35.5%; in assay [2] (digoxin standard 3.0 ng/ml), 27.2%; in assay [2] (digoxin standard 5.0 ng/ml), 19.6%. Moreover, the Mean % bound in assay [2] (digoxin standard .4 ng/ml) was found to be 58.5%. Further, the “% bound” value in assay [2] (control, no antibody) was 5.7% and 6.0% and 4.7%; in assay [2] (digoxin standard 0 ng/ml), 67.2% and 65.4% and 67.7%; in assay [2] (digoxin standard 1.0 ng/ml) it was 48.6% and 49.8%; in assay [2] (digoxin standard 2.0 ng/ml), 35.0% and 34.6% and 36.9%; in assay [2] (digoxin standard 3.0 ng/ml) it was 27.4% and 26.7% and 27.5%; in assay [2] (digoxin standard 5.0 ng/ml) it was 19.9% and 19.3% and 19.6%. In addition, the “% bound” value in assay [2] (digoxin standard .4 ng/ml) is 59.3% and 57.2% and 59.0%.

The values are drawn from patent US4064227A, “Radioimmunoassay method for the determination of cardiotonic glycosides” (Mallinckrodt, Inc., priority 1975, dated 1977).
